Measured values as given in patent US20060128721A1, “Novel formulations of opioid-based treatments of pain comprising substituted 1,4-di-piperidin-4-yl-piperazine derivatives” (priority 2003, published 2006).

Columns and labels:
[1] = target: T1, cloned human h-NK1 receptors expressed in CHO cells (Homo sapiens, UniProt P25103); experiment: Binding experiment for h-NK1 receptors ([3H]-Substance P displacement); conditions: read-out: h-NK1 pIC50 (converted)
T1 construct: expressed in transfected cells; host or cells: CHO cells
Method: (§1) The compounds according to the invention were investigated for interaction with various neurotransmitter receptors, ion channels and transporter binding sites using the radioligand binding technique. Membranes from tissue homogenates or from cells, expressing the receptor or transporter of interests, were incubated with a radioactively labelled substance ([^3H]- or [^125I] ligand) to label a particular receptor. […] Following incubation, labelled membranes were harvested and rinsed with excessive cold buffer to remove non-bound radioactivity by rapid filtration under suction. Membrane bound radioactivity was counted in a scintillation counter and results were expressed in counts per minute (cpm).
(§2) The compounds were dissolved in DMSO and tested at 10 concentrations ranging from 10^−10 to 10^−5 M.
(§3) The ability of the compounds according to the invention to displace [^3H]-Substance P from cloned human h-NK1 receptors expressed in CHO cells, to displace [^3H]-SR-48968 from cloned human h-NK2 receptors expressed in Sf9 cells, and to displace [^3H]-SR-142801 from cloned human h-NK3 receptors expressed in CHO cells was evaluated.

[2] = target: T2, cloned human h-NK2 receptors expressed in Sf9 cells (Homo sapiens, UniProt P21452); experiment: Binding experiment for h-NK2 receptors ([3H]-SR-48968 displacement); conditions: [3H]-SR-48968, Sf9 cells; read-out: h-NK2 pIC50 (converted)
T2 construct: expressed in transfected cells; host or cells: Sf9 cells
T2 sequence (P21452 1-398): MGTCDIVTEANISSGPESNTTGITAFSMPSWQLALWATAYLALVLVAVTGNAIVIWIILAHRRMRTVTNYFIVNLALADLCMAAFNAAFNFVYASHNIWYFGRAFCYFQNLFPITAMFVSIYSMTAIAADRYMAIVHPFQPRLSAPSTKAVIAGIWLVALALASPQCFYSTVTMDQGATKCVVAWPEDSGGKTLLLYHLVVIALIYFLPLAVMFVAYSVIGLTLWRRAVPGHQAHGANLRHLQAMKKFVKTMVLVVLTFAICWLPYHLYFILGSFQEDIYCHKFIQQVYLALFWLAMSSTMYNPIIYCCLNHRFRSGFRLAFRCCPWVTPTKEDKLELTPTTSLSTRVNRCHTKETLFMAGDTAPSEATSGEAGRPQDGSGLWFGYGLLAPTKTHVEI
Method: as §1, §2, §3

[3] = target: T3, cloned human h-NK3 receptors expressed in CHO cells (Homo sapiens, UniProt P29371); experiment: Binding experiment for h-NK3 receptors ([3H]-SR-142801 displacement); conditions: [3H]-SR-142801, CHO cells; read-out: h-NK3 pIC50 (converted)
T3 construct: expressed in transfected cells; host or cells: CHO cells
T3 sequence (P29371 1-465): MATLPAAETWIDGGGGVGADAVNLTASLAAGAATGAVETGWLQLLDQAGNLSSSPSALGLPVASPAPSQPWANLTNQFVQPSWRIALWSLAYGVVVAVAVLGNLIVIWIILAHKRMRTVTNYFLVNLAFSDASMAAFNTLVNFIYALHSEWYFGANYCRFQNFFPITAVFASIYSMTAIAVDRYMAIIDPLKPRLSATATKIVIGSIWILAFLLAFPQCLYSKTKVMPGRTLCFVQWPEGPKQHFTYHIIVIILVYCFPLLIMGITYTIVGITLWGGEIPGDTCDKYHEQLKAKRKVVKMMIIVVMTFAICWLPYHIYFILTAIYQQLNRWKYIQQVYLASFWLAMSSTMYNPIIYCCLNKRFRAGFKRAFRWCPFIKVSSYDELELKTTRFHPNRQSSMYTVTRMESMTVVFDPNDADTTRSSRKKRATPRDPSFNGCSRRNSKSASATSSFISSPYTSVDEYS
Method: as §1, §2, §3

T1 sequence (P25103 whole entry): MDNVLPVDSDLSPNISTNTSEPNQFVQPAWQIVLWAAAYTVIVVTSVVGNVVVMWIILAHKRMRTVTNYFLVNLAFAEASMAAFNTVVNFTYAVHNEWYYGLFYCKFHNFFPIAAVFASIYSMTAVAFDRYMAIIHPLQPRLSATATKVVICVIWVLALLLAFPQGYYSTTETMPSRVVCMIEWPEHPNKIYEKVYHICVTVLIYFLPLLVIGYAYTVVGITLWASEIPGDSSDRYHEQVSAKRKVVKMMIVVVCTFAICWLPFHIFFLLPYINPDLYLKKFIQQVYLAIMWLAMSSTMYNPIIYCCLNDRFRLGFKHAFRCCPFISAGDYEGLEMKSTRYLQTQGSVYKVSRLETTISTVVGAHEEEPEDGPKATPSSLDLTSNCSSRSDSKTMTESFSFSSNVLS

| Compound | IC50 [1] [nM] | IC50 [2] [nM] | IC50 [3] [nM] |
| --- | --- | --- | --- |
| Cc1nnsc1C(=O)N1CCC(N2CCN([C@@H]3CCN(C(=O)c4cc(C(F)(F)F)cc(C(F)(F)F)c4)[C@@H](Cc4ccccc4)C3)CC2)CC1 [Compound 141] | 7.94 | 3980 | 3980 |
| CC(C)(C)OC(=O)N1CCCCC1C(=O)N1CCC(N2CCN([C@H]3CCN(C(=O)c4cc(C(F)(F)F)cc(C(F)(F)F)c4)[C@H](Cc4ccccc4)C3)CC2)CC1 (stereo partly drawn) [Compound 89] | 2.51 | 631 | 631 |
| O=C(C(c1ccccc1)N1CCCC1)N1CCC(N2CCN(C3CCN(C(=O)c4cc(C(F)(F)F)cc(C(F)(F)F)c4)C(Cc4ccccc4)C3)CC2)CC1 (stereo not drawn) [Compound 113] | 1 | 398 | 398 |
| O=C(C(c1ccccc1)N1CCOCC1)N1CCC(N2CCN([C@H]3CCN(C(=O)c4cc(C(F)(F)F)cc(C(F)(F)F)c4)[C@H](Cc4ccccc4)C3)CC2)CC1 (stereo partly drawn) [Compound 116] | 2.51 | 794 | 158 |
| Cc1nnsc1C(=O)N1CCC(N2CCN([C@@H]3CCN(C(=O)c4cc(C(F)(F)F)cc(C(F)(F)F)c4)[C@H](Cc4ccccc4)C3)CC2)CC1 [Compound 139] | 1.58 | 794 | 316 |
| Cc1cc(C)cc(C(=O)N2CCC(N3CCN(C4CCN(C(=O)c5cc(C(F)(F)F)cc(C(F)(F)F)c5)C(Cc5ccccc5)C4)CC3)CC2Cc2ccccc2)c1 (single isomer, unassigned) [Compound 10] | 50.1 | 398 | 631 |
| Cc1cc(C)cc(C(=O)N2CCC(N3CCN(C4CCN(C(=O)c5cc(C(F)(F)F)cc(C(F)(F)F)c5)C(Cc5ccccc5)C4)CC3)CC2Cc2ccccc2)c1 (single isomer, unassigned) [Compound 11] | 39.8 | 631 | 251 |
| Cn1cccc1CN1CCC(N2CCN(C3CCN(C(=O)c4cc(C(F)(F)F)cc(C(F)(F)F)c4)C(Cc4ccccc4)C3)CC2)CC1 (stereo not drawn) [Compound 9] | 1.26 | 631 | 501 |

Other lines, results leading:

| IC50 [1] [nM] | IC50 [2] [nM] | IC50 [3] [nM] | Compound |
| --- | --- | --- | --- |
| 0.794 | 1000 | 1000 | N#Cc1cccc(C(=O)N2CCC(N3CCN([C@H]4CCN(C(=O)c5cc(C(F)(F)F)cc(C(F)(F)F)c5)[C@H](Cc5ccccc5)C4)CC3)CC2)c1 [Compound 39] |
| 1.58 | 631 | 158 | O=C(c1cccc(Cl)c1)N1CCC(N2CCN([C@H]3CCN(C(=O)c4cc(C(F)(F)F)cc(C(F)(F)F)c4)[C@H](Cc4ccccc4)C3)CC2)CC1 [Compound 32] |
| 3.98 | 501 | 251 | Cc1cccc(C(=O)N2CCC(N3CCN([C@H]4CCN(C(=O)c5cc(C(F)(F)F)cc(C(F)(F)F)c5)[C@H](Cc5ccccc5)C4)CC3)CC2)c1 [Compound 37] |
| 1.26 | 631 | 398 | O=C(c1cc(F)cc(F)c1)N1CCC(N2CCN([C@H]3CCN(C(=O)c4cc(C(F)(F)F)cc(C(F)(F)F)c4)[C@H](Cc4ccccc4)C3)CC2)CC1 [Compound 51] |
| 1 | 501 | 200 | Cc1ccc(O)c(C(=O)N2CCC(N3CCN([C@H]4CCN(C(=O)c5cc(C(F)(F)F)cc(C(F)(F)F)c5)[C@H](Cc5ccccc5)C4)CC3)CC2)c1 [Compound 56] |
| 6.31 | 316 | 398 | O=C(c1ccccn1)N1CCC(N2CCN([C@H]3CCN(C(=O)c4cc(C(F)(F)F)cc(C(F)(F)F)c4)[C@H](Cc4ccccc4)C3)CC2)CC1 [Compound 79] |
| 0.1 | 794 | 501 | O=C(c1ccsc1)N1CCC(N2CCN(C3CCN(C(=O)c4cc(C(F)(F)F)cc(C(F)(F)F)c4)C(Cc4ccccc4)C3)CC2)CC1 (stereo not drawn) [Compound 5] |
| 3.98 | 631 | 251 | COc1cc(C(=O)N2CCC(N3CCN([C@H]4CCN(C(=O)c5cc(C(F)(F)F)cc(C(F)(F)F)c5)[C@H](Cc5ccccc5)C4)CC3)CC2)cc(OC)c1OC [Compound 65] |
